Reference: publication PMC12136037, “Type II kinase inhibitors that target Parkinson’s disease–associated LRRK2” (Science Advances, 2025)
“And” between values parts separate entries of the source, which are not always exact repeats. Identical values can stand only once. “Also recorded” adds a separate entry of the source.

How the values were obtained:
[1] = tested on: LRRK2 S935 phosphorylation; assay: Western blot of LRRK2 biomarker site pS935 in transfected 293T cells; assay type: cell-based, human; conditions: for pS935 LRRK2/LRRK2 normalized to DMSO, Mean / pS935 LRRK2/LRRK2 normalized to DMSO: 4 h; for pS935 LRRK2/LRRK2 normalized to DMSO, Mean: 3 replicates; for pS935 LRRK2/LRRK2 normalized to DMSO: individual Western blots; for effect on phosphorylation of LRRK2 S935: 293T cells, MLi-2 500 nM
Procedure: (§1) For all in cell kinase assays, after 48 hours, transfected cells were treated with either DMSO (control) or the indicated inhibitors for 4 hours at 37°C and 5% CO2. Following treatments, cells were washed three times with ice cold PBS. Cells were then lysed in ice cold radioimmunoprecipitation assay (RIPA) lysis buffer [50 mM tris (pH 8.0), 150 mM NaCl, 1% Triton X-100, 0.1% SDS, 0.5% sodium deoxycholate, and 1 mM DTT] in the presence of complete mini EASYpack protease inhibitor cocktail and the PhosSTOP EASYpack phosphatase inhibitor cocktail (Roche). Resuspended and lysed cells were clarified by centrifugation at 13,000g for 15 min at 4°C. NuPAGE LDS Sample Buffer (1×) and NuPAGE Sample Reducing Agent (1×; Invitrogen) were added to the clarified supernatants, and the samples were boiled at 95°C for 5 min and spun down at 13,000g for 10 min. For Western blotting, 15 μl of sample was loaded into a NuPAGE 4 to 12% gradient bis-tris gel (Invitrogen) and run at 120 V for 75 min before transfer to polyvinylidene difluoride transfer membrane (0.45-μm pore size, Millipore) for 240 min at 80 V at 4°C. The membrane was blocked in 5% milk in 1× Tris-buffered saline (TBS) [20 mM tris (pH 8.0) and 150 mM NaCl] for 1 hour shaking at room temperature. Primary antibodies [monoclonal rabbit anti-LRRK2 (Abcam, ab133474; RRID: AB_2713963), polyclonal rabbit anti-LRRK1 (Abcam, ab228666), monoclonal rabbit anti-LRRK2 phospho-S935 (Abcam, ab133450; RRID: AB_2732035), monoclonal rabbit anti-Rab8a phospho-T72 (Abcam, ab230260; RRID: AB_2814988), monoclonal rabbit anti-Rab7 phospho-S72 (Abcam, ab302494; RRID: AB_2933985), monoclonal rabbit anti–glyceraldehyde-3-phosphate dehydrogenase (GAPDH; Cell Signalling Technology, 2118; RRID: AB_561053), and monoclonal mouse anti-GFP (Santa Cruz Biotechnology, sc-9996; RRID: AB_627695)] were diluted in 5% milk in TBS and incubated with membrane for 16 hours at 4°C. Following incubation, membranes were washed three times with 1× TBS-T [20 mM tris (pH 8.0), 150 mM NaCl, and 0.1% Tween 20] before incubation with IRDye 680RD goat anti-rabbit IgG (LI-COR, 926-68071; RRID: AB_10956166) and IRDye 800CW goat anti-mouse IgG (LI-COR, 926-32210; RRID: AB_621842) secondary antibodies in 5% milk in 1× TBS for 1 hour at room temperature. Membranes were then washed three times in 1× TBS-T before imaging on Li-COR Odyssey CLx controlled by Imaging Studio software (www.licorbio.com/image-studio, RRID:SCR_015795). Image processing and quantification were performed in ImageJ version 2.14.0 (National Institutes of Health; https://imagej.net/, RRID:SCR_003070). The signal intensity of each band was assessed using the Analyze>Gels tool. The band intensity for phosphorylated LRRK2 was measured and compared to total LRRK2 levels (run under identical conditions on a separate gel). Band intensity for phosphorylated Rab7 or Rab8a was measured and compared against total GFP-Rab7 or GFP-Rab8a (using anti-GFP antibody) and LRRK1/LRRK2 levels as appropriate. Comparative statistical analysis of phosphorylation levels was analyzed using a one-way analysis of variance (ANOVA) and corrected using Tukey’s multiple comparisons test in GraphPad Prism 10 (www.graphpad.com/, RRID:SCR_002798). (For current step-by-step protocol for LRRK transfection and Western blotting, see dx.doi.org/10.17504/protocols.io.kxygx9bozg8j/v1.)

G2019S LRRK2 = target: T1, G2019S LRRK2 (Homo sapiens, UniProt Q5S007, G2019S); assay: Western blot of Rab8a phosphorylation in 293T cells transfected with G2019S LRRK2 and GFP-Rab8a; assay type: cell-based; conditions: for inhibition of Rab8a phosphorylation by wild-type and G2019S LRRK2: 293T cells; for pRab8/Rab8/LRRK2 normalized to DMSO, Mean / pRab8/Rab8/LRRK2 normalized to DMSO: GFP-11 tagged G2019S LRRK2, 5 μM; for pRab8/Rab8/LRRK2 normalized to DMSO, Mean: 4 replicates; for pRab8/Rab8/LRRK2 normalized to DMSO: individual blots, normalized to WT DMSO (G2019S DMSO mean 2.25334)
T1 construct: The three constructs used in this study are indicated: full-length LRRK2, LRRK2^RCKW, and LRRK2^KW
T1 sequence (Q5S007 whole entry G2019S): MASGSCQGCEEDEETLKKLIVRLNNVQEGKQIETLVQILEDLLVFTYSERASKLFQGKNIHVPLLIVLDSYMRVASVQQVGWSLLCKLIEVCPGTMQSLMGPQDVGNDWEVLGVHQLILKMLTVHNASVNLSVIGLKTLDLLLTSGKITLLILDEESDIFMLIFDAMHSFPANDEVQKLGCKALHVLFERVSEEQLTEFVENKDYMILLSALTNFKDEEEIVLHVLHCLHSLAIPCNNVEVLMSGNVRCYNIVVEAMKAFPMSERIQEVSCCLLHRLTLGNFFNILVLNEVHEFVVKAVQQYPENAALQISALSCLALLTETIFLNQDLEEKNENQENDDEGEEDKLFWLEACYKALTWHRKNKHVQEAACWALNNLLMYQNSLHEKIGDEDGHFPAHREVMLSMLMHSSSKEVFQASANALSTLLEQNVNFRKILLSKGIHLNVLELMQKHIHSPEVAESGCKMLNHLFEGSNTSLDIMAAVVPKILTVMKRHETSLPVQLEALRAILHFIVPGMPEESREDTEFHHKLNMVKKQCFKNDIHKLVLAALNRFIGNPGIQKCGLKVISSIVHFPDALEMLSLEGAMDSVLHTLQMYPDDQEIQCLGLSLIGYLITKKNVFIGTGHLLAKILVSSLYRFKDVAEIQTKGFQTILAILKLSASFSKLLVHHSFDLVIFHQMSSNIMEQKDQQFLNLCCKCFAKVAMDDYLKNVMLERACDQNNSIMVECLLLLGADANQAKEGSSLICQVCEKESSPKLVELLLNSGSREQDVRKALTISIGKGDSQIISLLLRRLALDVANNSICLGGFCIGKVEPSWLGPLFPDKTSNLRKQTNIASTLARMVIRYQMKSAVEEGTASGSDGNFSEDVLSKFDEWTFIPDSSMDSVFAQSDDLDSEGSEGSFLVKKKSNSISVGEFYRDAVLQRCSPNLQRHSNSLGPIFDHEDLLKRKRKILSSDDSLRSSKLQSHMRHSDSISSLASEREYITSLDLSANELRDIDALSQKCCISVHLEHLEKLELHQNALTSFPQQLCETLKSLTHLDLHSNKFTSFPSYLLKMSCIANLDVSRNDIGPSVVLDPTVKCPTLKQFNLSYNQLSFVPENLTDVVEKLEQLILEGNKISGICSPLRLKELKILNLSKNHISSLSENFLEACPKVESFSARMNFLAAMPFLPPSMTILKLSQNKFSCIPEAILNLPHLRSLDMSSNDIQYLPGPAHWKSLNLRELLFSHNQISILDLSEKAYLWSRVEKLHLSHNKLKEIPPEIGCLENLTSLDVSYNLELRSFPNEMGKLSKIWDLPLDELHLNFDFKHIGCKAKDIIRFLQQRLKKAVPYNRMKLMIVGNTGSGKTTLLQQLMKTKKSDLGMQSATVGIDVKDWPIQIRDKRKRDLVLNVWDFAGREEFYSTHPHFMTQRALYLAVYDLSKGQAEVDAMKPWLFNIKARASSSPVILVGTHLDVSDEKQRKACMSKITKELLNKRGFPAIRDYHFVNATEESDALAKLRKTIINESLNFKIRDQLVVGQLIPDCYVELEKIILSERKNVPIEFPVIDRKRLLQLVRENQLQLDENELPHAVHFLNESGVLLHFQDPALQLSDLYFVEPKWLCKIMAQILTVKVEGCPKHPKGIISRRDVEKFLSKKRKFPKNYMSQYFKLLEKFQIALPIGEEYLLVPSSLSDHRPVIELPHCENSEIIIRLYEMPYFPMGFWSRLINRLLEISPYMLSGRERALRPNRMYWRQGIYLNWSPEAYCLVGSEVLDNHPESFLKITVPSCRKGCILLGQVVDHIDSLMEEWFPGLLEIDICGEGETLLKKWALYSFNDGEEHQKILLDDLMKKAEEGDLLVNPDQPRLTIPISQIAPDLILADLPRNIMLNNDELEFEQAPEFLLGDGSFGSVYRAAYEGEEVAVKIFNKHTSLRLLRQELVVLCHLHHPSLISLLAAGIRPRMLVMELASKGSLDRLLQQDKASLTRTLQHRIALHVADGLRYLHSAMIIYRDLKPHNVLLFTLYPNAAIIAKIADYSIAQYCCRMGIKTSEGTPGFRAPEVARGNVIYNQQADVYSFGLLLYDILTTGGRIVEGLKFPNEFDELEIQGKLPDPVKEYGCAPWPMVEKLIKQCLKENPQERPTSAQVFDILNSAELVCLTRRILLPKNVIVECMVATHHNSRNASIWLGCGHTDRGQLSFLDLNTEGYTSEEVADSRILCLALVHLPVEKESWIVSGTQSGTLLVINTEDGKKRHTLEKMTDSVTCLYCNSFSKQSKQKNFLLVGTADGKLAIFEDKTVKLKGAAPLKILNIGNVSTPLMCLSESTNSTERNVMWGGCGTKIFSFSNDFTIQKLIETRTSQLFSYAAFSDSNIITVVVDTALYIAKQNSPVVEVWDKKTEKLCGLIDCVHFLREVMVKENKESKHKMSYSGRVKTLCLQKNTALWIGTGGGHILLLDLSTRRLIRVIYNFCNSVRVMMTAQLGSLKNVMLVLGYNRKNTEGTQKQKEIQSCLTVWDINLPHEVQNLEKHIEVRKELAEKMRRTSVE
Procedure: For all in cell kinase assays, after 48 hours, transfected cells were treated with either DMSO (control) or the indicated inhibitors for 4 hours at 37°C and 5% CO2. Following treatments, cells were washed three times with ice cold PBS. Cells were then lysed in ice cold radioimmunoprecipitation assay (RIPA) lysis buffer [50 mM tris (pH 8.0), 150 mM NaCl, 1% Triton X-100, 0.1% SDS, 0.5% sodium deoxycholate, and 1 mM DTT] in the presence of complete mini EASYpack protease inhibitor cocktail and the PhosSTOP EASYpack phosphatase inhibitor cocktail (Roche). Resuspended and lysed cells were clarified by centrifugation at 13,000g for 15 min at 4°C. […] The membrane was blocked in 5% milk in 1× Tris-buffered saline (TBS) [20 mM tris (pH 8.0) and 150 mM NaCl] for 1 hour shaking at room temperature. […] Membranes were then washed three times in 1× TBS-T before imaging on Li-COR Odyssey CLx controlled by Imaging Studio software (www.licorbio.com/image-studio, RRID:SCR_015795). […] The signal intensity of each band was assessed using the Analyze>Gels tool. The band intensity for phosphorylated LRRK2 was measured and compared to total LRRK2 levels (run under identical conditions on a separate gel). Band intensity for phosphorylated Rab7 or Rab8a was measured and compared against total GFP-Rab7 or GFP-Rab8a (using anti-GFP antibody) and LRRK1/LRRK2 levels as appropriate. Comparative statistical analysis of phosphorylation levels was analyzed using a one-way analysis of variance (ANOVA) and corrected using Tukey’s multiple comparisons test in GraphPad Prism 10 (www.graphpad.com/, RRID:SCR_002798).

LRRK1 = LRRK1 (Homo sapiens, UniProt Q38SD2); assay: Western blot of Rab7 phosphorylation (pS72) in 293T cells transfected with LRRK1 and GFP-Rab7; assay type: cell-based; conditions: for pRab7/Rab7/LRRK1 normalized to DMSO, Mean / pRab7/Rab7/LRRK1 normalized to DMSO: 4 h; for pRab7/Rab7/LRRK1 normalized to DMSO, Mean: 3 replicates; for pRab7/Rab7/LRRK1 normalized to DMSO: individual Western blots; for inhibition of LRRK1 kinase activity in cells: 293T cells, Rab7 phosphorylation
Sequence of LRRK1 (Q38SD2 whole entry): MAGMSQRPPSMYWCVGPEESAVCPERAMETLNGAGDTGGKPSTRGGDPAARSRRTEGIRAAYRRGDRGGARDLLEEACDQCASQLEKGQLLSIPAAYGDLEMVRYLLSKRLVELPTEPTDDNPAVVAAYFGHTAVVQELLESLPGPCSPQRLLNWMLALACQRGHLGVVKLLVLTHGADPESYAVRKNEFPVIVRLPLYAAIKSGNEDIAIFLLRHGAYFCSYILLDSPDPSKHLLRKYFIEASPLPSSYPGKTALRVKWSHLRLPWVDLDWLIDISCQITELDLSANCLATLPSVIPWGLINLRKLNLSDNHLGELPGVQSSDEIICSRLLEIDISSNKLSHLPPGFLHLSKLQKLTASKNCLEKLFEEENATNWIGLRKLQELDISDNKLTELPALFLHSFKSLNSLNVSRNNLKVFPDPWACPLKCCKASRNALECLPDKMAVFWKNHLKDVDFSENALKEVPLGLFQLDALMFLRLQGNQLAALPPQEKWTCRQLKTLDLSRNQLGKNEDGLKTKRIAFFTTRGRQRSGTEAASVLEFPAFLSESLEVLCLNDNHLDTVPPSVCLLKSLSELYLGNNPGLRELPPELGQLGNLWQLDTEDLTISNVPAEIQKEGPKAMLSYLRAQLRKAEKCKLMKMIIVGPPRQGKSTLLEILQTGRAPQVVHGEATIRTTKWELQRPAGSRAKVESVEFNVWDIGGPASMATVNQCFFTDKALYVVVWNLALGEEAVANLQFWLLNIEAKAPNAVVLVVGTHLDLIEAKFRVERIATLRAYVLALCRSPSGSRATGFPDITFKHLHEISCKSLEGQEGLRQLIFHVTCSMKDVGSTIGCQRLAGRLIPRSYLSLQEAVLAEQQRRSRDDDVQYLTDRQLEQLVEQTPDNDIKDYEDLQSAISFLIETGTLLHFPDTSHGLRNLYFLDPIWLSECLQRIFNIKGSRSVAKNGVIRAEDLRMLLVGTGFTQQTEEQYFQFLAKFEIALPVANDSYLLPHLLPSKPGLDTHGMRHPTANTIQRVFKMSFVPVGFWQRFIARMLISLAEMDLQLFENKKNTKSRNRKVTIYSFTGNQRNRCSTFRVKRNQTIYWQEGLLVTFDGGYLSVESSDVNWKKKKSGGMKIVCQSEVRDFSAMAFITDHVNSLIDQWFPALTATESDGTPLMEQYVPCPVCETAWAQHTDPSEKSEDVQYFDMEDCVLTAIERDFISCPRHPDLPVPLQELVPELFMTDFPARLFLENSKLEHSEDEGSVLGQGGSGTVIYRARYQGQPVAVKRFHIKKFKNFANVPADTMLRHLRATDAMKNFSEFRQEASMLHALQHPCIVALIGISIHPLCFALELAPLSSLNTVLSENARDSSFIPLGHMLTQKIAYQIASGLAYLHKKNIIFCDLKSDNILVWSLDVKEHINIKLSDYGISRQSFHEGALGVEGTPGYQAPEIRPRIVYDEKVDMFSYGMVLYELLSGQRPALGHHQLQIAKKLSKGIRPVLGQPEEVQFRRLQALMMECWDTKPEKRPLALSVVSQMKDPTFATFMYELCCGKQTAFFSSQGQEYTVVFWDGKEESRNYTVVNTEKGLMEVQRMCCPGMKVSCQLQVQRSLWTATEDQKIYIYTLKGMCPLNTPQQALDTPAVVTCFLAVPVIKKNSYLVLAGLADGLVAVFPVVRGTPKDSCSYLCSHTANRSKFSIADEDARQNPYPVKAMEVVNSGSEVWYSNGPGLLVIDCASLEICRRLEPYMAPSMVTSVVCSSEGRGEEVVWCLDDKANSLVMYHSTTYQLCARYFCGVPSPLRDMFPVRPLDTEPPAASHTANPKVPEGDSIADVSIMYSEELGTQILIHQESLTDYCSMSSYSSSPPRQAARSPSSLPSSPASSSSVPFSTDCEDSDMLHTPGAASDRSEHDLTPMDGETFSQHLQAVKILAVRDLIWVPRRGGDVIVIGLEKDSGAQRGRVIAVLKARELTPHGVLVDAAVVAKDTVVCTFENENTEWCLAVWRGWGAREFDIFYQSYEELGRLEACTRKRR
Procedure: as §1

SMILES	pS935 LRRK2/LRRK2 normalized to DMSO, Mean ([1]; 250 nM)	pS935 LRRK2/LRRK2 normalized to DMSO, Mean ([1]; 500 nM)	pS935 LRRK2/LRRK2 normalized to DMSO, Mean ([1]; 1 μM)	pS935 LRRK2/LRRK2 normalized to DMSO, Mean ([1]; 5 μM)	pS935 LRRK2/LRRK2 normalized to DMSO, Mean ([1]; 10 μM)	effect on phosphorylation of LRRK2 S935 [1]	inhibition of Rab8a phosphorylation by wild-type and G2019S LRRK2 (G2019S LRRK2)	pRab8/Rab8/LRRK2 normalized to DMSO, Mean (G2019S LRRK2)	pRab7/Rab7/LRRK1 normalized to DMSO, Mean (LRRK1; 250 nM)	pRab7/Rab7/LRRK1 normalized to DMSO, Mean (LRRK1; 500 nM)	pRab7/Rab7/LRRK1 normalized to DMSO, Mean (LRRK1; 1 μM)	pRab7/Rab7/LRRK1 normalized to DMSO, Mean (LRRK1; 5 μM)	also measured
Cc1ccc(-n2nc(C(C)(C)C)cc2NC(=O)Nc2cccc(-c3c[nH]c4nc(Cl)nc(N5CCOCC5)c34)c2)cc1 [Compound 30]	0.9168	0.8971	0.8756	0.9338	0.9235	none of the tested type II inhibitors (broad-spectrum kinase inhibitor Ponatinib or our top compounds RN277 and RN341) reduced the phosphorylation level at this site	inhibited phosphorylation of Rab8a by both the wild-type and mutant kinase	0.5785	0.2801	0.132	0.07421	0.02826	pS935 LRRK2/LRRK2 normalized to DMSO ([1]; 250 nM, listed as 277): 0.9442 and 0.8289 and 0.9773; pS935 LRRK2/LRRK2 normalized to DMSO ([1]; 500 nM, listed as 277): 0.9489 and 0.8102 and 0.9321; pS935 LRRK2/LRRK2 normalized to DMSO ([1]; 1 μM, listed as 277): 1.005 and 0.7529 and 0.869; pS935 LRRK2/LRRK2 normalized to DMSO ([1]; 5 μM, listed as 277): 0.9369 and 0.9197 and 0.9447; pS935 LRRK2/LRRK2 normalized to DMSO ([1]; 10 μM, listed as 277): 0.9197 and 0.9052 and 0.9455; pRab8/Rab8/LRRK2 normalized to DMSO (G2019S LRRK2; listed as RN277): 0.5672 and 0.4996 and 1.119 and 0.1285; pRab7/Rab7/LRRK1 normalized to DMSO (LRRK1; 250 nM, listed as RN277): 0.1952 and 0.2204 and 0.4248; pRab7/Rab7/LRRK1 normalized to DMSO (LRRK1; 500 nM, listed as RN277): 0.134 and 0.06831 and 0.1937; pRab7/Rab7/LRRK1 normalized to DMSO (LRRK1; 1 µM, listed as RN277): 0.05675 and 0.07868 and 0.08722; pRab7/Rab7/LRRK1 normalized to DMSO (LRRK1; 5 µM, listed as RN277): 0.01168 and 0.03108 and 0.04201; inhibition of LRRK1 kinase activity in cells (LRRK1; listed as RN277): strong inhibitory effect; also recorded: potently inhibited LRRK1 in cells
CCSc1nc(NC)c2c(-c3cccc(NC(=O)Nc4cc(C(C)(C)C)nn4-c4ccc(C)cc4)c3)c[nH]c2n1 [Compound 32]	0.9603	0.9221	0.8783	0.8974	0.9517	none of the tested type II inhibitors (broad-spectrum kinase inhibitor Ponatinib or our top compounds RN277 and RN341) reduced the phosphorylation level at this site	inhibited phosphorylation of Rab8a by both the wild-type and mutant kinase	0.8793	0.1265	0.07673	0.0594	0.03197	pS935 LRRK2/LRRK2 normalized to DMSO ([1]; 250 nM, listed as 341): 0.9872 and 0.9193 and 0.9743; pS935 LRRK2/LRRK2 normalized to DMSO ([1]; 500 nM, listed as 341): 0.9409 and 0.8795 and 0.9459; pS935 LRRK2/LRRK2 normalized to DMSO ([1]; 1 μM, listed as 341): 0.9145 and 0.9018 and 0.8186; pS935 LRRK2/LRRK2 normalized to DMSO ([1]; 5 μM, listed as 341): 0.9195 and 0.9472 and 0.8255; pS935 LRRK2/LRRK2 normalized to DMSO ([1]; 10 μM, listed as 341): 0.9588 and 0.9056 and 0.9906; pRab8/Rab8/LRRK2 normalized to DMSO (G2019S LRRK2; listed as RN341): 0.923 and 1.39 and 0.7952 and 0.4091; pRab7/Rab7/LRRK1 normalized to DMSO (LRRK1; 250 nM, listed as RN341): 0.09263 and 0.098 and 0.1889; pRab7/Rab7/LRRK1 normalized to DMSO (LRRK1; 500 nM, listed as RN341): 0.0375 and 0.09153 and 0.1011; pRab7/Rab7/LRRK1 normalized to DMSO (LRRK1; 1 µM, listed as RN341): 0.03839 and 0.04963 and 0.09017; pRab7/Rab7/LRRK1 normalized to DMSO (LRRK1; 5 µM, listed as RN341): 0.0003413 and 0.05428 and 0.04127; inhibition of LRRK1 kinase activity in cells (LRRK1; listed as RN341): strong inhibitory effect; also recorded: potently inhibited LRRK1 in cells
Cc1ccc(C(=O)Nc2ccc(CN3CCN(C)CC3)c(C(F)(F)F)c2)cc1C#Cc1cnc2cccnn12 [Ponatinib, reference compound]				0.91		none of the tested type II inhibitors (broad-spectrum kinase inhibitor Ponatinib or our top compounds RN277 and RN341) reduced the phosphorylation level at this site							pS935 LRRK2/LRRK2 normalized to DMSO ([1]; 5 μM): 0.7959 and 0.8749 and 1.059
